Measured values taken from ChEMBL document CHEMBL5137059, “An Intelligent Strategy with All-Atom Molecular Dynamics Simulations for the Design of Lipopeptides against Multidrug-Resistant Pseudomonas aeruginosa” (2022).
Converted amounts (≈) assume the structure as drawn. Positions of bridges follow the written chain, without caps; N, C: chain ends. Non-standard residues stand in square brackets, D forms with d. Residues, ends and D or L forms follow the SMILES beside them. *: point of attachment. Benzoyl(4-Ph) = O=C(c1ccc(-c2ccccc2)cc1)*; Bip = N[C@@H](Cc1ccc(-c2ccccc2)cc1)C(=O)O; dBip = N[C@H](Cc1ccc(-c2ccccc2)cc1)C(=O)O; dGly(nOct) = CCCCCCCC[C@@H](N)C(=O)O; Gly(octyl) = CCCCCCCC[C@H](N)C(=O)O; Octanoyl = CCCCCCCC(=O)*; Dab = NCC[C@H](N)C(=O)O; Bn = c1ccc(C*)cc1

How the values were obtained:
Format in all cases: functional
Pseudomonas aeruginosa [1] = test: Antimicrobial activity against polymyxin resistant Pseudomonas aeruginosa FADDI-PA060 assessed as microbial growth inhibition measured at 18 to 20 hrs by broth microdilution assay; conditions: time 18-20 hrs
Pseudomonas aeruginosa [2] = test: Antimicrobial activity against polymyxin resistant Pseudomonas aeruginosa FADDI-PA070 assessed as microbial growth inhibition measured at 18 to 20 hrs by broth microdilution assay; conditions: time 18-20 hrs
Pseudomonas aeruginosa [3] = test: Antimicrobial activity against polymyxin resistant Pseudomonas aeruginosa FADDI-PA065 assessed as microbial growth inhibition measured after 20 hrs by CLSI-protocol based broth microdilution assay
Pseudomonas aeruginosa [4] = test: Antimicrobial activity against polymyxin resistant Pseudomonas aeruginosa FADDI-PA071 assessed as microbial growth inhibition measured after 20 hrs by CLSI-protocol based broth microdilution assay
Pseudomonas aeruginosa [5] = test: Antimicrobial activity against Pseudomonas aeruginosa PAO1R assessed as microbial growth inhibition measured after 20 hrs by CLSI-protocol based broth microdilution assay
Pseudomonas aeruginosa [6] = test: Antimicrobial activity against Pseudomonas aeruginosa PAO1 assessed as microbial growth inhibition measured after 20 hrs by CLSI-protocol based broth microdilution assay
Pseudomonas aeruginosa [7] = test: Antimicrobial activity against Pseudomonas aeruginosa PW7028 assessed as microbial growth inhibition measured after 20 hrs by CLSI-protocol based broth microdilution assay
Pseudomonas aeruginosa [8] = test: Disruption of membrane integrity in polymyxin resistant Pseudomonas aeruginosa FADDI-PA065 assessed as fold increase by measuring cellular fluorescence intensity at 8 mg/L incubated for 4 hrs by DiBAC and PI staining based flow cytometry analysis
Pseudomonas aeruginosa [9] = test: Disruption of membrane integrity in polymyxin resistant Pseudomonas aeruginosa FADDI-071 assessed as fold increase by measuring cellular fluorescence intensity at 8 mg/L incubated for 4 hrs by DiBAC and PI staining based flow cytometry analysis

Row | Compound | MIC (Pseudomonas aeruginosa [1]) [mg/L] | MIC (Pseudomonas aeruginosa [2]) [mg/L] | MIC (Pseudomonas aeruginosa [3]) [mg/L] | MIC (Pseudomonas aeruginosa [4]) [mg/L] | MIC (Pseudomonas aeruginosa [5]) [mg/L] | MIC (Pseudomonas aeruginosa [6]) [mg/L] | MIC (Pseudomonas aeruginosa [7]) [mg/L] | fold change (FC) (Pseudomonas aeruginosa [8]) | fold change (FC) (Pseudomonas aeruginosa [9])
1 | CCCCCCCC(=O)N[C@@H](CCN)C(=O)N[C@H](C(=O)N[C@@H](CCN)C(=O)N[C@H]1CCNC(=O)[C@H]([C@@H](C)O)NC(=O)[C@H](CCN)NC(=O)[C@H](CCN)NC(=O)[C@H](Cc2ccccc2)NC(=O)[C@@H](Cc2ccccc2)NC(=O)[C@H](CCN)NC1=O)[C@@H](C)O | > 32 | > 32 | – | – | – | – | – | – | –
2 | CCCCCCCC[C@H]1NC(=O)[C@H](CCN)NC(=O)[C@@H](NC(=O)[C@H](CCN)NC(=O)[C@@H](NC(=O)[C@H](CCN)NC(=O)c2ccccc2)[C@@H](C)O)CCNC(=O)[C@H]([C@@H](C)O)NC(=O)[C@H](CCN)NC(=O)[C@H](CCN)NC(=O)[C@H](CC(C)C)NC1=O | 32 (≈ 26.9 µM) | 32 (≈ 26.9 µM) | – | – | – | – | – | – | –
3 | CCCCCCCC(=O)N[C@@H](CCN)C(=O)N[C@H](C(=O)N[C@@H](CCN)C(=O)N[C@H]1CCNC(=O)[C@H]([C@@H](C)O)NC(=O)[C@H](CCN)NC(=O)[C@H](CCN)NC(=O)[C@H](CC(C)C)NC(=O)[C@@H](Cc2ccc(-c3ccccc3)cc2)NC(=O)[C@H](CCN)NC1=O)[C@@H](C)O (Octanoyl-[Dab]T[Dab][Dab][Dab][dBip]L[Dab][Dab]T; lactam 4-C) | 8 (≈ 6.32 µM) | 4 (≈ 3.16 µM) | – | – | – | – | – | – | –
4 | CCCCCCCC(=O)N[C@@H](CCN)C(=O)N[C@H](C(=O)N[C@@H](CCN)C(=O)N[C@H]1CCNC(=O)[C@H]([C@@H](C)O)NC(=O)[C@H](CCN)NC(=O)[C@H](CCN)NC(=O)[C@H](CSCc2ccccc2)NC(=O)[C@@H](Cc2ccccc2)NC(=O)[C@H](CCN)NC1=O)[C@@H](C)O (Octanoyl-[Dab]T[Dab][Dab][Dab][dF]C(Bn)[Dab][Dab]T; lactam 4-C) | 32 (≈ 25.2 µM) | > 32 | – | – | – | – | – | – | –
5 | CCCCCCCC(=O)N[C@@H](CCN)C(=O)N[C@H](C(=O)N[C@@H](CCN)C(=O)N[C@H]1CCNC(=O)[C@H]([C@@H](C)O)NC(=O)[C@H](CCN)NC(=O)[C@H](CCN)NC(=O)[C@H](Cc2ccc(-c3ccccc3)cc2)NC(=O)[C@@H](Cc2ccccc2)NC(=O)[C@H](CCN)NC1=O)[C@@H](C)O (Octanoyl-[Dab]T[Dab][Dab][Dab][dF][Bip][Dab][Dab]T; lactam 4-C) | 8 (≈ 6.16 µM) | 4 (≈ 3.08 µM) | – | – | – | – | – | – | –
6 | CCCCCCCC[C@@H]1NC(=O)[C@@H](Cc2ccccc2)NC(=O)[C@H](CCN)NC(=O)[C@@H](NC(=O)[C@H](CCN)NC(=O)[C@@H](NC(=O)[C@H](CCN)NC(=O)CCCCCCC)[C@@H](C)O)CCNC(=O)[C@H]([C@@H](C)O)NC(=O)[C@H](CCN)NC(=O)[C@H](CCN)NC1=O (Octanoyl-[Dab]T[Dab][Dab][Dab][dF][Gly(octyl)][Dab][Dab]T; lactam 4-C) | 2 (≈ 1.61 µM) | 4 (≈ 3.21 µM) | 1 (≈ 0.803 µM) | 4 (≈ 3.21 µM) | 8 (≈ 6.42 µM) | 4 (≈ 3.21 µM) | 2 (≈ 1.61 µM) | 19.6 | 19.6
7 | CCCCCCCC[C@H]1NC(=O)[C@H](CCN)NC(=O)[C@@H](NC(=O)[C@H](CCN)NC(=O)[C@@H](NC(=O)[C@H](CCN)NC(=O)CCCCCCC)[C@@H](C)O)CCNC(=O)[C@H]([C@@H](C)O)NC(=O)[C@H](CCN)NC(=O)[C@H](CCN)NC(=O)[C@H](CC(C)C)NC1=O (Octanoyl-[Dab]T[Dab][Dab][Dab][dGly(nOct)]L[Dab][Dab]T; lactam 4-C) | 2 (≈ 1.65 µM) | 2 (≈ 1.65 µM) | 2 (≈ 1.65 µM) | 4 (≈ 3.3 µM) | 8 (≈ 6.6 µM) | 4 (≈ 3.3 µM) | 4 (≈ 3.3 µM) | 18.8 | 18.8
8 | C[C@@H](O)[C@@H]1NC(=O)[C@H](CCN)NC(=O)[C@H](CCN)NC(=O)[C@H](Cc2ccc(-c3ccccc3)cc2)NC(=O)[C@@H](Cc2ccccc2)NC(=O)[C@H](CCN)NC(=O)[C@@H](NC(=O)[C@H](CCN)NC(=O)[C@@H](NC(=O)[C@H](CCN)NC(=O)c2ccc(-c3ccccc3)cc2)[C@@H](C)O)CCNC1=O ({Benzoyl(4-Ph)}-[Dab]T[Dab][Dab][Dab][dF][Bip][Dab][Dab]T; lactam 4-C) | 8 (≈ 5.91 µM) | 16 (≈ 11.8 µM) | – | – | – | – | – | – | –
9 | COLISTIN | > 128 | > 128 | > 128 | > 128 | > 32 | 2 | 1 | 2.33 | 2.33
